From PMC7169385, “Metabolic Stability of New Mito-Protective Short-Chain Naphthoquinones” (Pharmaceuticals, 2020)
Where “and” joins values, the source holds several entries; their conditions need not be identical. Equal entries are not always repeated.

Assays:
[1] = tested on: HepG2 cells; set-up: method as in PMID 30996858; conditions: ref [11], cited from earlier work; for In vitro Cytoprotection (%): HepG2, 10 μM SCQ, rotenone, cell survival relative to untreated cells (27.9 ± 7.9%), mean ± SD
[2] = tested on: HepG2 cells; assay: Metabolic stability study in HepG2 cells with RP-LC quantitation; type: in vitro ADME, human; conditions: for metabolic stability (in words) / metabolic conversion to the oxidized form: up to 6 h; for metabolic conversion to the oxidized form: by retention time, 3 to 5, 14 to 15, 4 to UTAS#94
Method: HepG2 cells were cultured in DMEM culture media in an atmosphere of 95% humidified air and 5% CO2 at 37 °C. Cells were passaged twice a week when reaching approximately 75% confluency. Cell monolayers were washed with PBS once before harvested with 0.5 mL EDTA and 0.5 mL trypsin for 3.5 min and counted using a hemocytometer (Paul Marienfeld GmbH, Lauda-Königshofen, Germany). Cells were routinely grown in 25 cm^2 cell culture flasks (2 μm vent cap, Corning, Victoria, Australia) with 2 × 10^6 cells seeded in 5 mL culture media. After thawing from liquid nitrogen storage, cells were passaged for at least 2–3 weeks to reach steady cumulative growth rates before used for any experiments.
To effectively compare the metabolic stability of our novel SCQs to the reference compound idebenone, a cell culture system had to be developed that would replicate the high metabolic conversion of idebenone in the liver observed in vivo [15, 16, 17]. We therefore employed the hepatic cell line HepG2 to expose the test compounds to hepatic-like enzymatic activities. In addition, the test concentration for SCQs and idebenone had to take into consideration two opposing factors. On the one hand the assay would need to contain sufficient test compound to maximize detection accuracy, on the other hand, the concentration needed to be below the levels that might induce toxicity towards the cultured cells. Based on previous data, no significant cell loss was observed when HepG2 cells were treated with most SCQs at a concentration of 200 μM for 24 h, which led us to select the lower concentration of 40 μM as test concentration. […] We therefore selected the lowest cell concentration (2.5 × 10^5 cells in 2 mL culture media) for this assay.
Log phase HepG2 cells were seeded at 2.5 × 10^5 cells well^−1 in tissue culture-treated 6-well plates (Corning, Victoria, Australia) and allowed to adhere overnight. After one day, the culture media was replaced with fresh culture media (2 mL well^−1) containing the test compounds (12 parallel wells per SCQ). After incubation of cells with test compounds for up to 6 hours, the cell culture media containing the residual SCQs was removed from the six-well plates. Then, 1 mL of cell culture media containing each tested compound was collected at different time points (t = 0, 2 h, 4 h, 6 h). Several methods of sample preparation were tested (e.g., dilution with organic solvents followed by evaporation) and the most suited approach was identified. Each sample (1 mL) was mixed 1:1 with ACN, vortexed for 10 s, and then centrifuged at 2000× g for 10 min at 25 °C. 1 mL of each supernatant was diluted 1:1 in purified water and filtered using 0.45 μm filters prior to immediate analysis by RP-LC. The final concentration of tested compounds for RP-LC analysis was ≤10 μM.
The RP-LC method was developed so that ≤10 μM of each SCQ could be quantified with acceptable repeatability (RSD%) and recovery (%). The mobile phase gradient was adjusted to generate a retention time (RT) of all compounds between 3.00–9.05 min (Table S1). The final conditions included a gradient flow of mobile phase B: 25% (same ACN% in the sample) for 2 min, 25–95% for 3 min, 95% for 4 min, 95–25% for 1 min, and 25% for 5 min (total run t = 15 min, including column post-conditioning). The injection volume (2–20 μL) and detection wavelength (210 nm, 230 nm, 254 nm, 480 nm) were then varied to optimize sensitivity, with 20 μL sample injection volume and detection at 210 nm identified as ideal (Figure S3). Supplementary Table S1 summarizes the analytical figures of merit for the RP-LC of all the compounds. […] The limit of quantification (LOQ) of each compound was established as 1 μM. RSD% (n = 3) at all concentrations (1.0 μM, 2.5 μM, 5.0 μM, 7.5 μM, and 10 μM) were between 0.4–7.6%. […] The above values for analytical figures of merit were considered acceptable for determining metabolic stability of the compounds with concentrations ≤10 μM. […]

[3] = tested on: idebenone metabolism in HepG2 cells; assay: Idebenone metabolism in HepG2 cells with or without 5; type: in vitro ADME, human; conditions: HepG2, 6 h
Method: The conversion from the L-phenylalaninol derivative 3 to the L-phenylalanine derivative 5 appeared to reach a plateau at ~10% conversion from t = 2 h and persisted for the entire test period until t = 6 h. […] A concentration series of the unstable reference SCQ idebenone was tested for metabolic stability for 6 h with or without 40 μM 5 (Figure 4). […] Future studies will need to address the type of inhibition and to identify the specific enzyme that is inhibited.
Figure 4 Reduced idebenone metabolism in the presence of the L-phenylalanine derivative 5. Data was expressed as mean ± SEM from three independent experiments, with 4 data points each. Non-linear fits and two-way ANOVA were performed for comparisons between with or without 5 supplemented: *** p < 0.001, * p < 0.033.

[4] = set-up: method as in PMID 19125241; conditions: single dose of 150 mg; ref [15]; cited from earlier work

Structure (SMILES)	In vitro Cytoprotection (%) [1]	metabolic stability (in words) ([2]; HepG2, 40 μM)	other results
CC1=C(CCCC(=O)N[C@H](CO)c2ccccc2)C(=O)c2ccccc2C1=O [Compound 1]	83.8 ± 19.9%	without a significant metabolic conversion	
CC1=C(CCCC(=O)N[C@@H](CO)c2ccccc2)C(=O)c2ccccc2C1=O [Compound 2]	87.6 ± 19.7%	without a significant metabolic conversion	
CC1=C(CCCC(=O)N[C@H](CO)Cc2ccccc2)C(=O)c2ccccc2C1=O [Compound 3]	93.1 ± 13.7%	much less stable than its unnatural D-enantiomer 4	
CC1=C(CCCC(=O)N[C@@H](CO)Cc2ccccc2)C(=O)c2ccccc2C1=O [Compound 4]	80.0 ± 21.1%	without a significant metabolic conversion	metabolic conversion to the oxidized form ([2]; HepG2, 40 μM): no conversion was detected
CC1=C(CCCC(=O)N[C@@H](Cc2ccccc2)C(=O)O)C(=O)c2ccccc2C1=O [Compound 5]	100.3 ± 17.3%	without a significant metabolic conversion	stability of 5 in combination with idebenone ([3]; 40 μM 5, all concentrations of idebenone): stable; effect on idebenone metabolism ([3]; 40 μM 5, from 20 μM idebenone onward): significant reduction of idebenone metabolism
CC1=C(CCCCC(=O)N[C@@H](Cc2ccccc2)C(=O)O)C(=O)c2ccccc2C1=O [Compound 6]	90.7 ± 15.6%	without a significant metabolic conversion	
CC1=C(CCCC(=O)NCCc2ccc(O)cc2)C(=O)c2ccccc2C1=O [Compound 7]	91.7 ± 15.6%	less stable	
CC1=C(CCCCC(=O)NCCc2ccc(O)cc2)C(=O)c2ccccc2C1=O [Compound 8]	91.8 ± 9.8%	increased metabolic stability	
CC1=C(CCCCCC(=O)NCCc2ccc(O)cc2)C(=O)c2ccccc2C1=O [Compound 9]	85.2 ± 9.5%	increased metabolic stability	
CC1=C(CCCC(=O)N[C@@H](CC(C)C)C(=O)O)C(=O)c2ccccc2C1=O [Compound 10]	98.7 ± 10.9%	without a significant metabolic conversion	
COc1ccc(CCNC(=O)CCCC2=C(C)C(=O)c3ccccc3C2=O)cc1OC [Compound 11]	95.9 ± 19.4%		
CCCCNC(=O)CCCC1=C(C)C(=O)c2ccccc2C1=O [Compound 12]	82.0 ± 7.1%		
COC(=O)[C@@H](NC(=O)CCCC1=C(C)C(=O)c2ccccc2C1=O)c1ccccc1 [Compound 13]	86.1 ± 5.0%		
CC1=C(CCCC(=O)N2CCCC2CO)C(=O)c2ccccc2C1=O (stereo not drawn) [Compound 14]	100.7 ± 28.4%		metabolic conversion to the oxidized form ([2]; HepG2, 40 μM): not detected at all
CC1=C(CCCC(=O)N2CCCC2C(=O)O)C(=O)c2ccccc2C1=O (stereo not drawn) [Compound 15]	92.7 ± 7.6%		
CC1=C(SCCC(=O)O)C(=O)c2ccccc2C1=O [Compound 16]		significantly reduced metabolic stability	
COC1=C(OC)C(=O)C(CCCCCCCCCCO)=C(C)C1=O [Idebenone, reference compound]	66.2 ± 12.0%		t1/2 in vivo [4]: 3 h and ~ 3 h; remaining at t = 6 h ([2]; HepG2 2.5 × 10^5 cells per well, 40 μM, 6 h, normalized to t = 0): ~ 27.3%; metabolized drug after 2 h ([2]; HepG2, 40 μM, 2 h, three cell densities (2.5 × 10^5 to 1.0 × 10^6 cells in 2 mL)): ~ 50%; metabolized drug after 4 h ([2]; HepG2, 40 μM, 4 h, three cell densities (2.5 × 10^5 to 1.0 × 10^6 cells in 2 mL)): ~76%
CC1=C(CCCC(=O)N[C@H](Cc2ccccc2)C(=O)O)C(=O)c2ccccc2C1=O [UTAS#94]			cytoprotection (in words) ([1]; selection for the current study): not cytoprotective enough
